Results from patent publication US20140005163A1 (NOVARTIS AG, priority 2010, published 2014).
Where “and” joins values, the source holds several entries; their conditions need not be identical. Equal entries are not always repeated.

Tests used:
Format in all cases: biochemical
[1] = biological target: T1, PI3K alpha (Homo sapiens, UniProt P42336); test: PI3K alpha kinase assay (Kinase-Glo luminescence)
T1 construct: p85(iSH2) fusion partner (see partner chain) (N); His tag (C); made in house; host or cells: baculovirus; Tn5 (Trichoplusia ni) or TiniPro insect cells
T1 sequence (P42336 with tags, fused parts or gaps limits assumed): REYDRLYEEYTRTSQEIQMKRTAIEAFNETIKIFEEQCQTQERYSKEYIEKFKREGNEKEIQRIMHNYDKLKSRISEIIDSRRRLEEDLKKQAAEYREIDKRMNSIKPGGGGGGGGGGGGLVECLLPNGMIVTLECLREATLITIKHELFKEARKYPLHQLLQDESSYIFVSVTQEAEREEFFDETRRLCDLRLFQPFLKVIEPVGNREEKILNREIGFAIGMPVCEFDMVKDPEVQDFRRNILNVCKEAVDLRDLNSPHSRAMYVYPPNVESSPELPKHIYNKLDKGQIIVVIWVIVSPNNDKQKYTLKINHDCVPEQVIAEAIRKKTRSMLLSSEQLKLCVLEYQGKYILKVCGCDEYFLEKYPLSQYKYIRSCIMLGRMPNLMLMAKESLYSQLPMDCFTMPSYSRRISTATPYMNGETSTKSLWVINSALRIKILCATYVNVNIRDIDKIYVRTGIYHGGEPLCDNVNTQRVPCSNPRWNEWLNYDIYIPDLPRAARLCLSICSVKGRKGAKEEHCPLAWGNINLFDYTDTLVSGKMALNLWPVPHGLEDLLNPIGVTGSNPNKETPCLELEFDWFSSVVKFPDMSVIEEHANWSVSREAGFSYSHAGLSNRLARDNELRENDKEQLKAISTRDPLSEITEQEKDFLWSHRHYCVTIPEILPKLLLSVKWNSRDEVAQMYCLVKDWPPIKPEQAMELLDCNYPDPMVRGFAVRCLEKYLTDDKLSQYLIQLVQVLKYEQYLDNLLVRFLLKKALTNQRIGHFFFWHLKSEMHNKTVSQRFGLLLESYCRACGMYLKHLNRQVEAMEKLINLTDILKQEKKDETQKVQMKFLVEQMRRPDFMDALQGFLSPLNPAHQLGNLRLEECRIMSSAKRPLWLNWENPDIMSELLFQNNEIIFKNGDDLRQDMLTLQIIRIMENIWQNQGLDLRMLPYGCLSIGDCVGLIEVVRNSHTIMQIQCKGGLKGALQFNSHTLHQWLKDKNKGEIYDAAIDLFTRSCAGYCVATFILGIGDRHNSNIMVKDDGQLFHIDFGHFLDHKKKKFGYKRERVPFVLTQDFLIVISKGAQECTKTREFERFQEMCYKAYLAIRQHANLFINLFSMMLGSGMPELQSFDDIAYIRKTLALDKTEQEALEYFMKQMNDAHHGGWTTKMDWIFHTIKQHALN
Outline: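 Compounds are titrated at 8 concentrations and mixed with PI3Kα protein (EMV B1075, 10 nM) in phosphatidylinositol (10 μg/mL). ATP at 1 μM starts the 60-minute room-temperature reaction, which is stopped with Kinase-Glo before luminescence reading. Four-parameter curve fitting gives IC50.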

[2] = biological target: T2, PI3K beta (Homo sapiens, UniProt P42338); test: PI3K beta kinase assay (Kinase-Glo luminescence)
T2 construct: for the full-length p110-b subunit are generated and fused by overlapping PCR; p85(iSH2) fusion partner (see partner chain) (N); His tag (C); made in house; host or cells: baculovirus; Tn5 (Trichoplusia ni) or TiniPro insect cells
T2 sequence (P42338 with tags, fused parts or gaps limits assumed): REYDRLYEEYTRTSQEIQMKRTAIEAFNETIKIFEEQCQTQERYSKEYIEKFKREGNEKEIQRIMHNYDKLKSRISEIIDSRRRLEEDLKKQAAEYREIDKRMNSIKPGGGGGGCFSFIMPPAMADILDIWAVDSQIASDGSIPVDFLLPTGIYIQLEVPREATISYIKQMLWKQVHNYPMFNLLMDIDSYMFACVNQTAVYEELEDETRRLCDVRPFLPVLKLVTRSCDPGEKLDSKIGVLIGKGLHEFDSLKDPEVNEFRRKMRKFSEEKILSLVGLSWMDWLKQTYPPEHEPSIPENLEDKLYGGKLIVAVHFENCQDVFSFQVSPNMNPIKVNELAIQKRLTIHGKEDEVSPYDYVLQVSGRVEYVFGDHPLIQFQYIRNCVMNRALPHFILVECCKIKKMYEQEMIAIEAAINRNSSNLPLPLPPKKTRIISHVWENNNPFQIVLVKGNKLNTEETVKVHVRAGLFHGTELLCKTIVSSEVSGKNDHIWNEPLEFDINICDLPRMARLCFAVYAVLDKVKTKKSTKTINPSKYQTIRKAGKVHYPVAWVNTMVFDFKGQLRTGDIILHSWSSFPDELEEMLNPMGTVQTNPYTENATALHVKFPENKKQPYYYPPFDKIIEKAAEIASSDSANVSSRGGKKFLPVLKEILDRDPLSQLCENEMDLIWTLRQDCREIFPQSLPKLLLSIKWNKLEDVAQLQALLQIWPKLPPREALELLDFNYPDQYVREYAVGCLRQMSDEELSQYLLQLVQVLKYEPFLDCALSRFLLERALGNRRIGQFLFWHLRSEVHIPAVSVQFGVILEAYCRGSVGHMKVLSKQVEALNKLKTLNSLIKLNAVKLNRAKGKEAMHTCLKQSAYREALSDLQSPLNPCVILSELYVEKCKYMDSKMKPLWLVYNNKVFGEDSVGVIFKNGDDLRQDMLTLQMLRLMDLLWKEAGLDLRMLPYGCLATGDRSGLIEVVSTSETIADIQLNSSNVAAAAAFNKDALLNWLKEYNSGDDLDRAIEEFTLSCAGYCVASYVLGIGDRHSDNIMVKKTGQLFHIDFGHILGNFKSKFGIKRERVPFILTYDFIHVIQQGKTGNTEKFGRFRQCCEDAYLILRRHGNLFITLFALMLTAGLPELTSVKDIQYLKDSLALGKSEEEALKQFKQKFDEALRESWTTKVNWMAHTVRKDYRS
Outline: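 p110β full-length/p85 iSH2 construct (BV-949), 25 nM, with 1 μM ATP and 10 μg/mL phosphatidylinositol in 10 mM Tris pH 7.5, 3 mM MgCl2, 50 mM NaCl, 0.05% CHAPS, 1 mM DTT. 60 min at room temperature; ATP remaining read by Kinase-Glo luminescence. IC50 from 8-point four-parameter logistic fit.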

[3] = biological target: T3, PI3K delta (Homo sapiens, UniProt O00329); test: PI3K delta kinase assay (Kinase-Glo luminescence)
T3 construct: for the full-length p110-d subunit are generated and fused by overlapping PCR; p85(iSH2) fusion partner (see partner chain) (N); His tag (C); made in house; host or cells: baculovirus; Tn5 (Trichoplusia ni) or TiniPro insect cells
T3 sequence (O00329 with tags, fused parts or gaps limits assumed): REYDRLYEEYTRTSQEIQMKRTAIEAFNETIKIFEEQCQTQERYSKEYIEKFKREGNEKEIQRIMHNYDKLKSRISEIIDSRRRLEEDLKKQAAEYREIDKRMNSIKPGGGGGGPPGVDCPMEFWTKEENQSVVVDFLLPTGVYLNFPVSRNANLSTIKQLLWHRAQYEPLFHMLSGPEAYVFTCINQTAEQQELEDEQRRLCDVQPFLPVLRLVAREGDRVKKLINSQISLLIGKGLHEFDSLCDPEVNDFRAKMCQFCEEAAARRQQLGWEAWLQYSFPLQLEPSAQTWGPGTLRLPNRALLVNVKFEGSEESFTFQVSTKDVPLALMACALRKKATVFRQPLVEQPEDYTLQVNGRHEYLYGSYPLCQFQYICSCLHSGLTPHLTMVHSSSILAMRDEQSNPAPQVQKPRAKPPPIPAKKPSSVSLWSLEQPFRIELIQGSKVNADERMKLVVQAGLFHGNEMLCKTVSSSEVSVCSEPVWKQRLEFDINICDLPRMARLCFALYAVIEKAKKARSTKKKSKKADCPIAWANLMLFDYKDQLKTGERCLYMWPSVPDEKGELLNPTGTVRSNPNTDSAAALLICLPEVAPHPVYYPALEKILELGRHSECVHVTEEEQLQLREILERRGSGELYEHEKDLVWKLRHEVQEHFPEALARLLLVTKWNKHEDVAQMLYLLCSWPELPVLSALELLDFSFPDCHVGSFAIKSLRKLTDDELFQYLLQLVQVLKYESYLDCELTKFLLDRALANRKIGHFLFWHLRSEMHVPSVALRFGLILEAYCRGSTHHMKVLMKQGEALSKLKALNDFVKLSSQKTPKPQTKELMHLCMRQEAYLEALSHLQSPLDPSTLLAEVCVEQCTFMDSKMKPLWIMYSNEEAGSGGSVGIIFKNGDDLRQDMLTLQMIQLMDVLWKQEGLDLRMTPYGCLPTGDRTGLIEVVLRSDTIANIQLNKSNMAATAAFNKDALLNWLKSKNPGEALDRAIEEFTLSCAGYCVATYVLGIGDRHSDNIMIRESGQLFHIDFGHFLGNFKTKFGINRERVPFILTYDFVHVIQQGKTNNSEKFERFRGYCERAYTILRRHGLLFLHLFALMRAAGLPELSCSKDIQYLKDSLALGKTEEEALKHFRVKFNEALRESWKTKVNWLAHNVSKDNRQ
Outline: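 ATP 1 μM, PI 10 μg/mL, PI3Kδ construct BV1060 10 nM (final); 10 mM Tris pH 7.5, 3 mM MgCl2, 50 mM NaCl, 0.05% CHAPS, 1 mM DTT; 60 min RT; Kinase-Glo stop, luminescence.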

[4] = biological target: T4, PI3K gamma (Homo sapiens, UniProt P48736); test: PI3K gamma kinase assay (Kinase-Glo luminescence)
T4 construct: His tag (C); made in house; host or cells: baculovirus (pVL1393); Tn5 or TiniPro insect cells; construct from Roger Williams lab, MRC LMB
T4 sequence (P48736 144-1102 limits assumed): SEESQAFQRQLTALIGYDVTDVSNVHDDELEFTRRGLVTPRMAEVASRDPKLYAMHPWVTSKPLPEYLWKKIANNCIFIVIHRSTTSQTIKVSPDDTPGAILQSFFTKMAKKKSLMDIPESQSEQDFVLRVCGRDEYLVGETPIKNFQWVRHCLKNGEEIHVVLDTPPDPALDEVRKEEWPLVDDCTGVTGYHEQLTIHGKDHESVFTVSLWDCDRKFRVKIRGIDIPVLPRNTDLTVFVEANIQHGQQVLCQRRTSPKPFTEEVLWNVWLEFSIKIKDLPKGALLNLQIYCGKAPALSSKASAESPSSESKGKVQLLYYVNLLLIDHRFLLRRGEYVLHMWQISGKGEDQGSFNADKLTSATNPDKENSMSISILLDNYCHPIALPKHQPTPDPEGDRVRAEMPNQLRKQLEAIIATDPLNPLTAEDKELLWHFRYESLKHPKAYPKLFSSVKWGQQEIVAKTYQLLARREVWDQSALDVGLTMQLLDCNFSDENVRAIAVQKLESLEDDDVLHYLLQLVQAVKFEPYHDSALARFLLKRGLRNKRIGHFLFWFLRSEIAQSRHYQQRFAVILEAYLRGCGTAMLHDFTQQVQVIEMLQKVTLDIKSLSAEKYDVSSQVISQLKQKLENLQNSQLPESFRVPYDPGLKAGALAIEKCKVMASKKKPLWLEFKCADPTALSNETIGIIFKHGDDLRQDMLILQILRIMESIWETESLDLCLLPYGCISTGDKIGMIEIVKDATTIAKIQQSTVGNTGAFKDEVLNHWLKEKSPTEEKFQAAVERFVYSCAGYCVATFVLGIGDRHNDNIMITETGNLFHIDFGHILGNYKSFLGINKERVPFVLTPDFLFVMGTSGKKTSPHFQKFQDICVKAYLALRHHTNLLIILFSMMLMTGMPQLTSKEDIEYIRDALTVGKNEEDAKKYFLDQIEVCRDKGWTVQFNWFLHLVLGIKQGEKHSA
Outline: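 Luminescent ATP-depletion (Kinase-Glo) assay with 150 nM PI3Kγ, 1 μM ATP and 10 μg/mL phosphatidylinositol in 10 mM Tris-HCl pH 7.5, 3 mM MgCl2, 50 mM NaCl, 0.05% CHAPS, 1 mM DTT; 120 min at room temperature. Eight-point dilutions; IC50 by four-parameter logistic fit.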

Row | Compound | IC50 [1] [nM] | IC50 [2] [nM] | IC50 [3] [nM] | IC50 [4]
1 | COc1ccc(-c2ccc3ncc4c(c3c2)n(-c2c(C)nn(C)c2C)c(=O)n4C)cn1 [Example 2.4, 8-(6-Methoxy-pyridin-3-yl)-3-methyl-1-(1,3,5-trimethyl-1H-pyrazol-4-yl)-1,3-dihydro-imidazo[4,5-c]quinolin-2-one] | 65 | 120 | 33 | 199 nM
2 | Cc1nn(C(C)C)cc1-n1c(=O)n(C)c2cnc3ccc(-c4ccc(N5CCC5)nc4)cc3c21 [Example 5.2, 8-(6-Azetidin-1-yl-pyridin-3-yl)-1-(1-isopropyl-3-methyl-1H-pyrazol-4-yl)-3-methyl-1,3-dihydro-imidazo[4,5-c]quinolin-2-one] | 34 |  | 53 | 227 nM
3 | COc1ncc(-c2ccc3ncc4c(c3c2)n(-c2cn(C)nc2C)c(=O)n4C)cn1 [Example 17.2, 1-(1,3-Dimethyl-1H-pyrazol-4-yl)-8-(2-methoxy-pyrimidin-5-yl)-3-methyl-1,3-dihydro-imidazo[4,5-c]quinolin-2-one] | 56 | 206 | 38 | 873 nM
4 | CCOc1ccc(-c2ccc3ncc4c(c3c2)n(-c2c(C)nn(C)c2C)c(=O)n4C)cc1OC [Example 29.2, 8-(4-Ethoxy-3-methoxy-phenyl)-3-methyl-1-(1,3,5-trimethyl-1H-pyrazol-4-yl)-1,3-dihydro-midazo[4,5-c]quinolin-2-one] | 38 | 167 | 56 | 145 nM
5 | COCCOc1ccc(-c2ccc3ncc4c(c3c2)n(-c2cn(C)nc2C)c(=O)n4C)cc1OC [Example 30.1, 1-(1,3-Dimethyl-1H-pyrazol-4-yl)-8-[3-methoxy-4-(2-methoxy-ethoxy)-phenyl]-3-methyl-1,3-dihydro-imidazo[4,5-c]quinolin-2-one] | 22 | 157 | 36 | 178 nM
6 | Cc1nn(C)c(C)c1-n1c(=O)n(C)c2cnc3ccc(-c4cccc(O)c4)cc3c21 [Example 32.2, 8-(3-Hydroxy-phenyl)-3-methyl-1-(1,3,5-trimethyl-1H-pyrazol-4-yl)-1,3-dihydro-imidazo[4,5-c]quinolin-2-one] | 30 | 165 | 38 | 160 nM
7 | CNC(=O)c1ccc(-c2ccc3ncc4c(c3c2)n(-c2cn(C)nc2C)c(=O)n4C)cc1 [Example 43.1, 4-[1-(1,3-Dimethyl-1H-pyrazol-4-yl)-3-methyl-2-oxo-2,3-dihydro-1H-imidazo[4,5-c]quinolin-8-yl]-N-methyl-benzamide] | 10 | 190 | 218 | 150 nM
8 | Cc1nn(CC(=O)N(C)C)cc1-n1c(=O)n(C)c2cnc3ccc(-c4ccc(-n5cccn5)cc4)cc3c21 [Example 51.2, N,N-Dimethyl-2-{3-methyl-4-[3-methyl-2-oxo-8-(4-pyrazol-1-yl-phenyl)-2,3-dihydro-imidazo[4,5-c]quinolin-1-yl]-pyrazol-1-yl}-acetamide] | 8 |  | 453 | 138 nM
9 | CCOc1ncc(-c2ccc3ncc4c(c3c2)n(-c2cn(C)nc2C)c(=O)n4C)cn1 [Example 52, 1-(1,3-Dimethyl-1H-pyrazol-4-yl)-8-(2-ethoxy-pyrimidin-5-yl)-3-methyl-1,3-dihydro-imidazo[4,5-c]quinolin-2-one] | 56 | 343 | 37 | 597 nM
10 | COCCOc1cncc(-c2ccc3ncc4c(c3c2)n(-c2cn(C)nc2C)c(=O)n4C)c1 [Example 59.1, 1-(1,3-Dimethyl-1H-pyrazol-4-yl)-8-[5-(2-methoxy-ethoxy)-pyridin-3-yl]-3-methyl-1,3-dihydro-imidazo[4,5-c]quinolin-2-one] | 18 | 89 | 91 | 179 nM
11 | COCCn1c(=O)n(C)c2ncc(-c3ccc4ncc5c(c4c3)n(-c3cn(C)nc3C)c(=O)n5C)cc21 [Example 69, 1-(1,3-Dimethyl-1H-pyrazol-4-yl)-8-[1-(2-methoxy-ethyl)-3-methyl-2-oxo-2,3-dihydro-1H-imidazo[4,5-b]pyridin-6-yl]-3-methyl-1,3-dihydro-imidazo[4,5-c]quinolin-2-one] | 39 | 129 | 36 | 646 nM
12 | CCn1c(=O)n(-c2cn(C)nc2C)c2c3nc(-c4ccc(OC)c(OC)c4)ccc3ncc21 [Example 251, 8-(3,4-Dimethoxy-phenyl)-1-(1,3-dimethyl-1H-pyrazol-4-yl)-3-ethyl-1,3-dihydro-1,3,5,9-tetraaza-cyclopenta[a]naphthalen-2-one] | 28 | 504 | 170 | 212 nM

Second part, the compound after the results:

Row | IC50 [1] [nM] | IC50 [2] [nM] | IC50 [3] [nM] | IC50 [4] | Compound
13 | 15 | 225 | 6 | 242 nM | CCn1cc(-n2c(=O)n(C)c3cnc4ccc(-c5ccc(N(C)C)nc5)cc4c32)c(C)n1 [Example 4.2, 8-(6-Dimethylamino-pyridin-3-yl)-1-(1-ethyl-3-methyl-1H-pyrazol-4-yl)-3-methyl-1,3-dihydro-imidazo[4,5-c]quinolin-2-one]
14 | 99 | 382 | 98 | 142 nM | Cc1nn(C)c(C)c1-n1c(=O)n(C)c2cnc3ccc(-c4ccc(N(C)C)nc4)cc3c21 [Example 4.3, 8-(6-Dimethylamino-pyridin-3-yl)-3-methyl-1-(1,3,5-trimethyl-1H-pyrazol-4-yl)-1,3-dihydro-imidazo[4,5-c]quinolin-2-one]
15 | 14 | 66 | 13 | 191 nM | Cc1ccc(-c2ccc3ncc4c(c3c2)n(-c2cn(C)nc2C)c(=O)n4C)cn1 [Example 7.2, 1-(1,3-Dimethyl-1H-pyrazol-4-yl)-3-methyl-8-(6-methyl-pyridin-3-yl)-1,3-dihydro-imidazo[4,5-c]quinolin-2-one]
16 | 16 | 255 | 257 | 528 nM | CNC(=O)c1ccc(-c2ccc3ncc4c(c3c2)n(-c2cn(C)nc2C)c(=O)n4C)cn1 [Example 15.1, 5-[1-(1,3-Dimethyl-1H-pyrazol-4-yl)-3-methyl-2-oxo-2,3-dihydro-1H-imidazo[4,5-c]quinolin-8-yl]-pyridine-2-carboxylic acid methylamide]
17 | 59 | 404 | 27 | 408 nM and 359 nM | Cc1nn(C(C)C)cc1-n1c(=O)n(C)c2cnc3ccc(-c4ccc(CO)nc4)cc3c21 [Example 16.3, 8-(6-hydroxymethyl-pyridin-3-yl)-1-(1-isopropyl-3-methyl-1H-pyrazol-4-yl)-3-methyl-1,3-dihydro-imidazo[4,5-c]quinolin-2-one]
18 | 30 | 120 | 20 | 386 nM | CCn1cc(-n2c(=O)n(C)c3cnc4ccc(-c5cnc(OC)nc5)cc4c32)c(C)n1 [Example 17.1, 1-(1-Ethyl-3-methyl-1H-pyrazol-4-yl)-8-(2-methoxy-pyrimidin-5-yl)-3-methyl-1,3-dihydro-imidazo[4,5-c]quinolin-2-one]
19 | 14 | 29 | 12 | 253 nM | CCn1cc(-n2c(=O)n(C)c3cnc4ccc(-c5cncc(OC(C)C)c5)cc4c32)c(C)n1 [Example 58.4, 1-(1-Ethyl-3-methyl-1H-pyrazol-4-yl)-8-(5-isopropoxy-pyridin-3-yl)-3-methyl-1,3-dihydro-imidazo[4,5-c]quinolin-2-one]
20 | 83 | 409 | 203 | 250 nM | CCOc1cc(-c2ccc3ncc4c(c3c2)n(-c2cn(C)nc2C)c(=O)n4C)ccn1 [Example 91, 1-(1,3-Dimethyl-1H-pyrazol-4-yl)-8-(2-ethoxy-pyridin-4-yl)-3-methyl-1,3-dihydro-imidazo[4,5-c]quinolin-2-one]
21 | 20 | 101 | 19 | 191 nM | COc1ccc(-c2ccc3ncc4c(c3c2)n(-c2cn(CCO)nc2C)c(=O)n4C)cn1 [Example 103.1, 1-[1-(2-Hydroxy-ethyl)-3-methyl-1H-pyrazol-4-yl]-8-(6-methoxy-pyridin-3-yl)-3-methyl-1,3-dihydro-imidazo[4,5-c]quinolin-2-one]
